Tests used:
[1] = target: T1, SdrCN2N3 (Staphylococcus aureus, UniProt O86487); assay type: binding, S. aureus; settings: 10 nM fluorescein-labeled peptide, 3 hours, room temperature, dark
T1 construct: Increasing concentrations of SdrC178-496 were incubated with 10 nM labeled peptide; His tag (N); made in house; host or cells: E. coli Topp 3
Method: We used fluorescence polarization to determine the dissociation constant for the SdrCN2N3-Nrx1β peptide interaction. spNrxwt and spNrxscr were labeled with fluorescein and incubated with increasing concentrations of recombinant MSCRAMM.
Increasing concentrations of SdrCN2N3 or ClfBN2N3 (black circle) were incubated with 10 nM fluorescein-labelled spNrxwt peptide (black square) or spNrxscr peptide (black triangle) for 3 hours at room temperature in the dark. Equation ΔP = ΔPmax [protein]/(KD+[protein]) was used to calculate the equilibrium constant. […] After 3 hours, the mixture was incubated for another 3 hours at room temperature in the dark with 10 nM fluorescein labeled spNrxwt peptide. Fluorescence polarization was determined as described above. […]
Increasing concentrations of SdrC178-496 were incubated with 10 nM labeled peptide for 3 hours in the dark at room temperature. Polarization was measured using Luminescence Spectrometer LB50B (Perkin Elmer). The data were analyzed by non-linear regression for one binding site. The equilibrium dissociation constant was calculated using the equation ΔP = ΔPmax x [protein])/(KD + [protein]) (Eq.1) where ΔP is the change in fluorescence polarization, ΔPmax is the maximum change in fluorescence polarization and KD is the equilibrium dissociation constant of the interaction.

[2] = target: T1, SdrCN2N3; assay: Fluorescence polarization inhibition by unlabeled peptides of SdrCN2N3 binding to fluorescein-labeled spNrxwt; parameters: species or system S. aureus; settings: 0.5 µM SdrCN2N3 with unlabeled peptide 3 hours, then 3 hours with 10 nM labeled spNrxwt, room temperature; mean±SD, three experiments
Method: After 3 hours, the mixture was incubated for another 3 hours at room temperature in the dark with 10 nM fluorescein labeled spNrxwt peptide. Fluorescence polarization was determined as described above. The values represented here are the mean±SD of triplicates from three experiments.
To eliminate the possibility that the binding was dependent of the fluorescein label introduced in the wild-type peptide, we tested the ability of unlabeled spNrxwt and spNrxscr to inhibit the binding of SdrCN2N3 to fluorescein-labeled spNrxwt. Increasing concentrations of unlabeled peptides were incubated with SdrCN2N3 for three hours at room temperature before the fluorescent polarization experiment was performed.
For inhibition assays, 0.5 µM SdrC178–496 was first incubated with increasing concentrations of unlabeled Nrxwt or unlabeled Nrxscr for 3 hours at room temperature. The mixture was then incubated for 3 hours with fluorescein-labeled Nrxwt. The results presented represent the mean±SD of three independent experiments.

[3] = system: SdrCN2N3 - Nrx47-255 interaction; assay: Peptide inhibition of SdrCN2N3 binding to immobilized Nrx47-255; parameters: species or system S. aureus (SdrC); settings: 0.5 µM SdrCN2N3 with increasing peptide, 2 hours, room temperature, then on immobilized Nrx47-255; mean±SD of triplicates from three experiments
Method: Figure 3 Structural organization of β-neurexins. (A) A cartoon representation of β-neurexin domain structure. S, signal sequence; NL, neuroligin-binding domain; Glyc, glycosylation domain; TM, transmembrane domain; PDZ, intracellular signaling domain. Also shown, are the recombinant proteins used in this study. (B) Coomassie-stained SDS-PAGE gel of GST-tagged neurexin 1β domains recombinant proteins. Increasing concentrations of SdrCA (C) and SdrCN2N3 (D) were incubated with immobilized Nrx47-255 (black square), Nrx70–255 (black triangle) or GST (black circle) for 1 hour at room temperature. […] (E) SdrC178–496 (0.5 µM) was incubated with increasing concentrations of spNrxwt peptide (black square) or spNrxscr peptide (black triangle) at room temperature. After 2 hours, the mixture was incubated with immobilized Nrx47–255. […]
Each well of Immulon 4BH plates was coated with 1 µg of recombinant Nrx47–255-GST, Nrx70–255-GSTor GST overnight at 4°C. […] Bound protein was detected with a polyclonal antibody (1∶3000) against SdrCN2N3 (H.T.I. BioProducts) followed by an anti-rabbit HRP-labeled antibody (1∶5000) (Bio-Rad Labs, Hercules, CA). Color development was performed using SigmaFast OPD (Sigma, St. Louis, MO) and the binding was measured using a microtiter plate reader (Molecular Devices) at 450 nm. […] The binding was analyzed by non-linear regression for one binding site (GraphPad Prism).

[4] = target: Nrx_(47-255)-GST, recombinant neurexin 1β fragment (human) (UniProt P58400); assay: ELISA; solid phase binding assay: 1 µg/well Nrx-GST protein or GST coated on Immulon 4BH plates, increasing concentrations of SdrC protein, 1 hour at room temperature, detected with anti-SdrC_(N2N3) serum; apparent KD (concentration for half maximum binding)
Chain of Nrx_(47-255)-GST, recombinant neurexin 1β fragment (human) (P58400 47-255): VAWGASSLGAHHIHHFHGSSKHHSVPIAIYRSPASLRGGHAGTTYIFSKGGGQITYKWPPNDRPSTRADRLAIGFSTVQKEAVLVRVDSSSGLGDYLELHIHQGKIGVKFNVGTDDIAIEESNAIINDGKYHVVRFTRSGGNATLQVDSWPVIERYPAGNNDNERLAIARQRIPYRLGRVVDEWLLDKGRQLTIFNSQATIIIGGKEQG

[5] = target: fluorescein-labeled spNrxwt (human); assay: fluorescence polarisation; increasing concentrations of MSCRAMM with 10 nM fluorescein-labelled peptide, 3 hours at room temperature in the dark; one-site fit
[6] = Phage display panning with immobilized SdrGN2N3 or BSA, total bound TUs; assay type: binding; settings: input phage 1.5×10^11, 1 µg/well
Text: Analysis of peptides or protein segments displaced on the surface of phage is a useful method to identify partners in protein-protein interaction systems,[17],[18],[19]. To determine if this method can be used to identify ligands for MSCRAMMs from Gram-positive bacteria, we performed a validation experiment using SdrGN2N3 as bait in a screen of a commercially available 12-mer linear library (New England Biolabs Ph.D.-12 Phage Display Peptide Library). We carried out three successive rounds of panning against immobilized SdrGN2N3. To confirm that the enrichment of the phage clones between panning rounds was the result of specific interactions, the phage pool before and after each step of amplification was also tested for binding to BSA. […] We then sequenced the DNA purified from ten phage plaques obtained after the third round of panning.
NEB Ph.D.12-mer random library was incubated with immobilized SdrC N2N3, SdrG N2N3 or BSA at 1 µg/well. The input was 1.5×10^11 transducing units with a complexity of 2.7×10^9 electroporated sequences. The assay was performed according to the manufacturer's instructions. The output phage plaques were 10^4 transducing units. Wells were washed with 0.5% Tween in TBS buffer, blocked with 10% BSA and incubated with 1×10^8 transducing units of each amplified phage or insertless phage (fd-tet). To remove unbound phage, wells were washed 10 times with 0.5% Tween in TBS. Bound phage was detected with anti-M13-HRP antibody (GE Healthcare, Buckinghamshire, UK).

T1 sequence (O86487 178-496): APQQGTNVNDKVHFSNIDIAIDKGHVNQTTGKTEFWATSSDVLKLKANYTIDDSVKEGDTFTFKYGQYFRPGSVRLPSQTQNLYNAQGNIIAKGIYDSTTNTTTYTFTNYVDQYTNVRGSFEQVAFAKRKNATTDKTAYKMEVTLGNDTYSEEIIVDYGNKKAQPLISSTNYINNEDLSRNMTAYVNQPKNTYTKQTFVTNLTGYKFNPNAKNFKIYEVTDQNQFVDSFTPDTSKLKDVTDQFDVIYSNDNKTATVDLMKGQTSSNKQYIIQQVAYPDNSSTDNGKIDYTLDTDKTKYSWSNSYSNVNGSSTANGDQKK
Chain of SdrC N2N3 domain, recombinant SdrC_(178-496) (O86487 178-496 limits assumed): as the sequence (O86487 178-496) above
Chain of SdrC A-region, recombinant SdrC_(52-496) (O86487 52-496 limits assumed): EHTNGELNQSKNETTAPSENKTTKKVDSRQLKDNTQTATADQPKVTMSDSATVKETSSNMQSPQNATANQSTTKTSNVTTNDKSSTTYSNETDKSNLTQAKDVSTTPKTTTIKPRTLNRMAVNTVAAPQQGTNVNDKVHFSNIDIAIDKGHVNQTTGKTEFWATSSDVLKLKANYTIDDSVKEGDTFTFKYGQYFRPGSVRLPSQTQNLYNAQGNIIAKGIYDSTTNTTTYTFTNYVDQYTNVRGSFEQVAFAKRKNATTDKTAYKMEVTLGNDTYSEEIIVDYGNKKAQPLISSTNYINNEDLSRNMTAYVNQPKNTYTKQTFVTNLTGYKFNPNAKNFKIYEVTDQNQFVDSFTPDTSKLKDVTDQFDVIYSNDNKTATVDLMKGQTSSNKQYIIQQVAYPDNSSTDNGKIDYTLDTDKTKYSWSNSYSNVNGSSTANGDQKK

HSHIKLHSHGHSFGHA [spNrxscr]
binding to SdrCN2N3 by fluorescence polarization [1]: did not detect a significant binding | inhibition of SdrCN2N3 binding to fluorescein-labeled spNrxwt [2]: but not the spNrxscr inhibited | inhibition of SdrCN2N3-Nrx47-255 binding [3]: did not observe an inhibition

SdrC A-region, recombinant SdrC_(52-496) (from UniProt O86487 52-496) (domain or fragment)
Kd [4]: 185 nM

SdrC N2N3 domain, recombinant SdrC_(178-496) (from UniProt O86487 178-496) (domain or fragment)
Kd [5]: 250 nM | Kd [4]: 126 nM

SdrG: fibrinogen-binding MSCRAMM of Staphylococcus epidermidis, N2N3 domain used as bait
Total bound TUs ([6]; panning 1): 4×10^5 TUs | Total bound TUs ([6]; panning 2): 3×10^7 TUs | Total bound TUs ([6]; panning 3): 2×10^8 TUs

Source: publication PMC2800189, “β-Neurexin Is a Ligand for the Staphylococcus aureus MSCRAMM SdrC” (PLoS Pathogens, 2010)
